Measured values from ChEMBL document CHEMBL1240322, “Small-molecule regulation of zebrafish gene expression” (Nat Chem Biol, 2007).
Numbering of substitutions follows the chain as printed. Active and inactive are the calls of the source. The calls are words filed in the database; no cut-off is given here.

Columns and labels:
[1] = biological target: T1, Ecdysone receptor (Bombyx mori) (UniProt P49881); assay: (§1) Activation of Bombyx mori Ecdysone receptor (amino acids 272-606) expressed in HEK293 cells transfected with cytomegalovirus promoter-driven expression construct encoding chimeric transactivator composed of DBD and homodimerization domains of yeast Gal4 (amino acids 1-146) and VP16 activation domain (amino acids (413-476) at 10 uM exposed for 16 hrs by Gal4 dependent luciferase reportre gene assay relative to untreated control; type: cell-based
T1 sequence (whole entry): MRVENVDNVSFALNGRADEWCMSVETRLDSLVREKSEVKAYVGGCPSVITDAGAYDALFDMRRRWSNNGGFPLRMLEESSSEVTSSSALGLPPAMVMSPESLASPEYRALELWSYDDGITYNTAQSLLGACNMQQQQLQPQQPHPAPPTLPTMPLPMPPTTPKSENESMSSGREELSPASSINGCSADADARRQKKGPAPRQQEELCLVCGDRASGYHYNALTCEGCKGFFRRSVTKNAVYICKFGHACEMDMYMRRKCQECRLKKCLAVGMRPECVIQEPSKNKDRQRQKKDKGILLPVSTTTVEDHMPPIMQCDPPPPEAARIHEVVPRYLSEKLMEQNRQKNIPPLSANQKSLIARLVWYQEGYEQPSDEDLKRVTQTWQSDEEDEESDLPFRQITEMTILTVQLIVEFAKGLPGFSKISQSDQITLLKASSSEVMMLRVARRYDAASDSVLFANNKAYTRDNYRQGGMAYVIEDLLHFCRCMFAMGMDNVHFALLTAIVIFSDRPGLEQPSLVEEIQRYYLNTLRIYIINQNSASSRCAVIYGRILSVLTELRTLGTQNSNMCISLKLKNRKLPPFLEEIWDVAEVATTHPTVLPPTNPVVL

[2] = biological target: T1, Ecdysone receptor (Bombyx mori); assay: as §1, with “(456-490)” for “(413-476)”; type: cell-based
[3] = biological target: T1, Ecdysone receptor (Bombyx mori); assay: as §1, with “(468-490)” for “(413-476)”; type: cell-based
[4] = biological target: T1, Ecdysone receptor (Bombyx mori); assay: as §1, with “(413-456)” for “(413-476)”; type: cell-based
[5] = biological target: T1, Ecdysone receptor (Bombyx mori); assay: as §1, with “(413-468)” for “(413-476)”; type: cell-based
[6] = biological target: T1, Ecdysone receptor (Bombyx mori); assay: as §1, with “(413-490)” for “(413-476)”; type: cell-based
[7] = tested on: Danio rerio; assay: Toxicity in zebrafish AB embryos assessed as induction of patterning deffects at 10 uM dosed every 24 hrs measured 72 hrs post fertilization; type: organism-based; conditions: in vivo
[8] = biological target: T1, Ecdysone receptor (Bombyx mori); assay: as §1, with “AB zebrafish embryos” for “HEK293 cells”, “(413-490)” for “(413-476)”
[9] = tested on: T2, Ecdysone receptor (Bombyx mori), P49881 [V454I,Y474E]; assay: as §1, with “receptor V454I and Y474E mutant” for “receptor”, “AB zebrafish embryos” for “HEK293 cells”, “(456-490)” for “(413-476)”
T2 sequence (whole entry): T1 sequence (whole entry) with V454I, Y474E

[10] = tested on: T2, Ecdysone receptor (Bombyx mori), P49881 [V454I,Y474E]; assay: as §1, with “receptor V454I and Y474E mutant” for “receptor”, “272-606)-mediated mylz2 gene expression” for “272-606)”, “AB zebrafish embryos” for “HEK293 cells”, “(468-490) assessed as mylz2-promoter driven fats skeletal muscle specific GFP expression” for “(413-476)”, “during 3 to 48” for “for 16”, “hrs post fertilization” for “hrs”
[11] = tested on: T2, Ecdysone receptor (Bombyx mori), P49881 [V454I,Y474E]; assay: as §1, with “receptor V454I and Y474E mutant” for “receptor”, “AB zebrafish embryos” for “HEK293 cells”, “(468-490)” for “(413-476)”
[12] = biological target: T1, Ecdysone receptor (Bombyx mori); assay: as §1, with “AB zebrafish embryos” for “HEK293 cells”
[13] = biological target: T1, Ecdysone receptor (Bombyx mori); assay: as §1, with “AB zebrafish embryos” for “HEK293 cells”, “(413-456)” for “(413-476)”
[14] = tested on: T2, Ecdysone receptor (Bombyx mori), P49881 [V454I,Y474E]; assay: as §1, with “receptor V454I and Y474E mutant” for “receptor”, “272-606)-mediated myl7 gene expression” for “272-606)”, “AB zebrafish embryos” for “HEK293 cells”, “(468-490) assessed as myl7-promoter driven heart specific GFP expression” for “(413-476)”, “during 3 to 48” for “for 16”, “hrs post fertilization” for “hrs”
[15] = biological target: T1, Ecdysone receptor (Bombyx mori); assay: as §1, with “AB zebrafish embryos” for “HEK293 cells”, “(413-468)” for “(413-476)”
[16] = biological target: T1, Ecdysone receptor (Bombyx mori); assay: as §1, with “AB zebrafish embryos” for “HEK293 cells”, “(468-490)” for “(413-476)”
[17] = species on record: Danio rerio; assay: Toxicity in zebrafish AB embryos assessed as induction of patterning deffects at 10 uM single dose measured 72 hrs post fertilization; type: organism-based; conditions: in vivo
[18] = biological target: T1, Ecdysone receptor (Bombyx mori); assay: as §1, with “AB zebrafish embryos” for “HEK293 cells”, “([…])” for “(413-476)”
[19] = tested on: T2, Ecdysone receptor (Bombyx mori), P49881 [V454I,Y474E]; assay: as §1, with “receptor V454I and Y474E mutant” for “receptor”, “in AB zebrafish embryos” for “in HEK293 cells”, “acids (468-490)” for “acids (413-476)”, “at 50” for “at 10”, “for 2 to 6” for “for 16”, “hrs at 4 hrs post fertilization” for “hrs”
[20] = tested on: T2, Ecdysone receptor (Bombyx mori), P49881 [V454I,Y474E]; assay: Induction of nuclear translocation of Bombyx mori Ecdysone receptor V454I and Y474E mutant (amino acids 272-606) expressed in AB zebrafish embryos transfected with cytomegalovirus promoter-driven expression construct encoding chimeric transactivator composed of DBD and homodimerization domains of yeast Gal4 (amino acids 1-146) and VP16 activation domain (amino acids (468-490) at 1 uM exposed for 30 mins at 4 hrs post fertilization by Gal4 dependent luciferase reportre gene assay relative to untreated control

Row | Compound | fold change (FC) [1] | fold change (FC) [2] | fold change (FC) [3] | fold change (FC) [4] | fold change (FC) [5] | fold change (FC) [6] | Activity [7] | fold change (FC) [8] | fold change (FC) [9] | Activity [10] [%] | fold change (FC) [11] | fold change (FC) [12] | fold change (FC) [13] | Activity [14] [%] | fold change (FC) [15] | fold change (FC) [16] | Activity [17] | fold change (FC) [18] | Activity [19] | Activity [20]
1 | CC(C)CC[C@@H](O)[C@](C)(O)[C@H]1CC[C@@]2(O)C3=CC(=O)[C@@H]4C[C@@H](O)[C@@H](O)C[C@]4(C)[C@H]3CC[C@]12C [PONASTERONE A] | 18.7 | 55.5 | 19.5 | 26.1 | 44 | 6.05 | Non-toxic | – | – | – | – | – | – | – | – | – | – | – | – | –
2 | COc1cccc(C(=O)NN(C(=O)c2cc(C)cc(C)c2)C(C)(C)C)c1C [METHOXYFENOZIDE] | – | – | – | – | – | – | Non-toxic | – | – | – | – | – | – | – | – | – | – | – | – | –
3 | Cc1cc(C)cc(C(=O)N(NC(=O)c2ccc3c(c2C)OCCO3)C(C)(C)C)c1 | – | – | – | – | – | – | Non-toxic | – | – | – | – | – | – | – | – | – | – | – | – | –
4 | CCc1ccc(C(=O)NN(C(=O)c2cc(C)cc(C)c2)C(C)(C)C)cc1 [TEBUFENOZIDE] | 57 | 1420 | 880 | 139 | 114 | 14.5 | Non-toxic | 0.8 | 212 | 69 | 1070 | 1.73 | 1.13 | 44 | 5.05 | 113 | Non-toxic | 42.2 | Active | Active
